Source: PMC4503950, “EGCG reverses human neutrophil elastase-induced migration in A549 cells by directly binding to HNE and by regulating α1-AT” (Scientific Reports, 2015)

Target: T1, human neutrophil elastase (HNE) (Homo sapiens, UniProt P08246)
T1 construct: gene ELANE; Recombinant HNE protein (molecular mass, 25 kDa)
T1 sequence (P08246 30-247): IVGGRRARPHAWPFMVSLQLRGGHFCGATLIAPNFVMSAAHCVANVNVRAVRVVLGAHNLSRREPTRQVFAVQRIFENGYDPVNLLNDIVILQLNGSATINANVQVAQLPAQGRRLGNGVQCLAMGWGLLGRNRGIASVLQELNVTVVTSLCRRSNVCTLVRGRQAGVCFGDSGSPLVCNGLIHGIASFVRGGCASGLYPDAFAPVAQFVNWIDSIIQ
Experiment: SPR (Biacore […], HNE immobilized on CM5 chip, […] Langmuir fit); also enzyme inhibition with IC50 […]
Format: binding

O=C(OC1Cc2c(O)cc(O)cc2OC1c1cc(O)c(O)c(O)c1)c1cc(O)c(O)c(O)c1 (stereo not shown) [EGCG] gave a Kd of 41.4 µM.
